Measurements: US20040229284A1, “Multiplex analysis of proteins” (The Regents of the University of California, priority 2003, published 2004)

Assays:
Type in all cases: cell-based
EGFR = assay: Microsphere (Luminex) detection of tyrosine-phosphorylated EGFR in lysates of activated A431 cells; settings: for detection of tyrosine phosphorylated EGFR in lysates of activated cells: anti-EGFR coated microspheres, 4G10-biotin, streptavidin-R-phycoerythrin
Method: A431 cells were grown to 80-90% confluency in T75 flasks. Cells were washed once with fresh media (37° C.). For treatment, sodium pervanadate was prepared as described above and diluted into DMEM to 1 mM final concentration. Two ml of 1 mM sodium pervanadate containing media, prewarmed to 37° C., was added per T75 flask and the cell monolayer was covered with it. Cells were incubated at 37° C. for 5 min. Activated cells were lysed and processed as described below.
For pathway specific activation of A431 cells, which overexpress the epidermal growth factor receptor (EGFR), the cells were treated with epidermal growth factor (EGF). Cells were grown to about 80-90% confluency in a T75 flask. The optimal concentration of EGF for activation of the EGFR pathway in A431 cells was determined to be 100 μM. EGF was diluted in DMEM containing 10% serum. Two ml of the diluted EGF (100 μM) was layered on top of the cell monolayer. Cells were incubated at 37° C. for 15 min for activation. Activated cells were lysed and processed as described below.
A431 cells were lysed by adding 1 ml of 1× lysis buffer (1% NP-40 and protease inhibitor cocktail in PBS), pre-chilled on ice, per T75 flask. Cells were removed by scraping with a cell scraper. Lysate was vortexed immediately after addition of lysis buffer and incubated on ice for 15 min. While incubating on ice, it was mixed by vortexing every 5 min. […]
(§1) After incubation with the lysate, liquid was drained from the bottom of plate, under vacuum, on a suction apparatus (Millipore Corporation) designed to fit these plates. […] Washed microspheres were resuspended in 100 μl of wash buffer per well and analyzed in the Luminex-100™ instrument, according to the manufacturer's instructions.
Later experiments focused on analyzing multiple proteins in another pathway simultaneously, as described below. (It will be evident that multiple proteins in the EGFR pathway or any other pathways or combinations thereof could similarly be analyzed simultaneously.)

Lck [1] = assay: Five-plex microsphere (Luminex) assay of tyrosine phosphorylation in activated Jurkat T-cells: Lck; settings: lysate from pervanadate treated Jurkat cells, 37° C., 5 min; FIG. 2
Method: (§2) Jurkat cells were resuspended to a density of 1×10^8 cells/ml in PBS. Cells were pre-warmed to 37° C. for 15 min. To each milliliter of cell suspension, 40 μl of sodium pervanadate was added. Cells were mixed and immediately incubated at 37° C. for 5 min. Activated cells were lysed, and cell lysates were processed as described below.
(§3) For pathway specific activation, Jurkat cells were treated with anti-CD3-receptor monoclonal antibody (UCHT1) (Becton Dickenson, San Diego, Calif.). Cells were resuspended in PBS at a density of 1×10^8/ml and prewarmed to 37° C. Anti-CD3 antibody was added to a final concentration of 5 μg/ml. Cells were mixed and incubated at 37° C. for various times ranging from 5 sec to 10 min. Optimal phosphorylation of most tyrosine kinases and their substrates in the T-cell receptor pathway occurred in 5 min.
(§4) Jurkat cells were lysed by adding a volume of 2× lysis buffer (2% NP-40 and protease inhibitor cocktail (both from Roche Diagnostics, Mannheim, Germany) in PBS), pre-chilled on ice, equal to the volume of the resuspended cells. […]
as §1, with “instructions. […]” for “instructions.”

Zap70 [2] = assay: Five-plex microsphere (Luminex) assay of tyrosine phosphorylation in activated Jurkat T-cells: Zap70; settings: lysate from pervanadate treated Jurkat cells, 37° C., 5 min; FIG. 2
Method: as §2, §3, §4
as §1, with “instructions. […]” for “instructions.”

LAT [3] = assay: Five-plex microsphere (Luminex) assay of tyrosine phosphorylation in activated Jurkat T-cells: LAT; settings: lysate from pervanadate treated Jurkat cells, 37° C., 5 min; FIG. 2
Method: as §2, §3, §4
as §1, with “instructions. […]” for “instructions.”

Lck [4] = assay: Immunoprecipitation and Western analysis with biotinylated 4G10, Jurkat lysates: Lck; settings: Jurkat cell lysates, treated vs untreated; FIG. 3
Method: (§5) To confirm that microspheres coated with antibodies to Lck, Zap70 and LAT captured predominantly specific proteins in cell lysates, immunoprecipitation was performed with these antibodies. Cell lysates (1×10^8 cells in 1 ml) were incubated with 2.5 μg of each antibody for 1 hr. The immune complexes were captured with Protein G conjugated sepharose (Sigma Chemicals, St. Louis, Mo.) and resolved by standard polyacrylamide gel electrophoresis (PAGE). Resolved proteins were transferred to PVDF membrane (BiORad, Hercules, Calif.) and probed with biotinylated 4G10 (1:2000 dilution in 5% non-fat powdered milk in PBS). Phosphorylated bands were finally detected by ABC Detection Reagent (Vector Laboratories, Burlingame, Calif.) and Chemiluminescent Substrate (Pierce). […] These phosphorylated proteins predominated in their respective immunoprecipitates.

Zap70 [5] = assay: Immunoprecipitation and Western analysis with biotinylated 4G10, Jurkat lysates: Zap70; settings: Jurkat cell lysates, treated vs untreated; FIG. 3
Method: as §5

LAT [6] = assay: Immunoprecipitation and Western analysis with biotinylated 4G10, Jurkat lysates: LAT; settings: Jurkat cell lysates, treated vs untreated; FIG. 3
Method: as §5

Row | Substance | detection of tyrosine phosphorylated EGFR in lysates of activated cells (EGFR) | fluorescent signal from streptavidin-phycoerythrin, anti-Lck coated microspheres (Lck [1]) | fluorescent signal from streptavidin-phycoerythrin, anti-Zap70 coated microspheres (Zap70 [2]) | fluorescent signal from streptavidin-phycoerythrin, anti-LAT coated microspheres (LAT [3]) | phosphorylated band of Lck in immunoprecipitate (Lck [4]) | phosphorylated band of Zap70 in immunoprecipitate (Zap70 [5]) | phosphorylated band of LAT in immunoprecipitate (LAT [6]) | optimal concentration of EGF for activation of the EGFR pathway (EGFR; 37° C., 15 min)
1 | sodium pervanadate | could be detected | strong fluorescent signal | strong fluorescent signal | strong fluorescent signal | detected only in lysates from cells treated with sodium pervanadate | detected only in lysates from cells treated with sodium pervanadate | detected only in lysates from cells treated with sodium pervanadate | 
2 | epidermal growth factor [EGF] | could be detected |  |  |  |  |  |  | 100 µM
